These results are taken from paper PMC7915527, “Development of a Liquid Chromatography/Mass Spectrometry-Based Inhibition Assay for the Screening of Steroid 5-α Reductase in Human and Fish Cell Lines” (Molecules, 2021).

The subject of one data set is 5AR in ZFL cells. The experiment in a line: Cell-based 5AR activity/inhibition assay in zebrafish liver cells (ZFL). Here is the method: (§1) For the calculation of KM for optimized assay conditions, ZFL and RTG-2 cells were treated with testosterone in increments of 0 to 50 µM. The DHT levels were measured (Figure 5a). Based on the calculated KM values, inhibition assays were conducted (Figure 5b).
(§2) HEK-293, LNCaP, DU-145, SW-13, and ZFL cell lines were obtained from the American Type Culture Collection (ATCC; Manassas, VA, USA) and cultured according to their instructions. The HEK-293 cells were cultured in a high-glucose DMEM that contained 10% FBS, 100 units/mL penicillin, and 100 µg/mL streptomycin. The DU-145 cells were cultured in EMEM that contained 10% FBS, 100 units/mL penicillin, and 100 µg/mL streptomycin. The LNCaP cells were cultured in RPMI 1640 that contained 10% FBS, 100 units/mL penicillin, and 100 µg/mL streptomycin at 37 °C in 5% CO2. SW-13 cells were cultured in Leibovitz’s L-15 medium with 10% FBS at 37 °C without CO2. ZFL cells were cultured in a complete medium that was composed of 50% L-15, 35% DMEM medium, and 15% F12 medium that contained […] sodium bicarbonate, 15 mM HEPES, 0.01 mg/mL bovine insulin, 50 ng/mL mouse EGF, 5% FBS, and 0.5% trout serum at 28 °C without CO2. RTG-2 cells were obtained from Prof. Kristin Schirmer (EAWAG, Switzerland) and cultured in the L-15 medium with 5% FBS, 100 units/mL penicillin, and 100 µg/mL streptomycin at 20 °C without CO2.
(§3) All cells were seeded on a 24-well plate. The seeding densities of the DU-145, LNCaP, and SW-13 cells were 0.5 × 10^5 cells per well. The ZFL and RTG-2 cells were seeded at densities of 1.0 × 10^5 cells and 2.0 × 10^5 cells, respectively. After overnight culture, the culture media was aspirated from each well and treated with testosterone that was diluted in the complete medium for 3 h and 6 h. In the case of transiently transfected HEK-293 cells, the testosterone treatment was applied after transient overexpression under the same conditions as other cell lines. The treated media were collected from each well and centrifuged at 3000× g for 5 min at 4 °C. The supernatants were stored at −80 °C until needed. […] The seeding conditions of all cells were the same as those previously described. After overnight culture, the culture medium was aspirated, and the cells were cotreated with a medium that contained testosterone and inhibitors for 3 h. The medium was collected from each well and centrifuged at 3000× g for 5 min at 4 °C. The supernatants were stored at −80 °C until analysis.
A method that was modified by was used for DHT extraction from the samples. […]
(§4) The extracts were analyzed for DHT via ultra-performance LC-MS/MS (Agilent 1200/6460C QQQMSD coupled Jet Stream technology electrospray ion (ESI) source; Agilent Technologies, Santa Clara, CA, USA).

For another data set, the system named is 5AR in RTG-2 cells. The experiment in a line: Cell-based 5AR activity/inhibition assay in rainbow trout gonad cells (RTG-2). Here is the method: as §1, §2, §3
A method that was modified by was used for DHT extraction from the samples. Each sample, which included the calibration, QC, and assay medium, was placed in 1.5 mL PP tubes and spiked with a 0.5 ng/mL DHT-D3 internal standard prior to extraction. All sample tubes were vortexed for 5 s, and the samples were extracted using a liquid-liquid extraction (LLE) method via the addition of 600 µL of MTBE. The samples were vortexed and centrifuged at 4500× g rpm for 5 min, and the organic phase was transferred into glass tubes. The extraction step was repeated once, and the organic phase extracts were dried under a stream of nitrogen. After the samples were dried, 100 µL of the derivatization reagent and 100 µL of TEA were added for DHT derivatization. […]
as §4

The next data set concerns the target T1, SRD5A2 (Homo sapiens, UniProt P31213).
T1 sequence (P31213 1-254): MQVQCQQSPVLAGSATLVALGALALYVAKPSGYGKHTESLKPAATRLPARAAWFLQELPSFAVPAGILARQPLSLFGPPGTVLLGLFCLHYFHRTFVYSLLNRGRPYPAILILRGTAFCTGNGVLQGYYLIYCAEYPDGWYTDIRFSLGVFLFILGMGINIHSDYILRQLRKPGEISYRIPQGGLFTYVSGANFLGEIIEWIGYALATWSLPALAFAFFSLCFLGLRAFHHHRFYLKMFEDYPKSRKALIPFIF
The experiment in a line: Cell-based 5AR activity/inhibition assay in HEK-293 cells transiently overexpressing SRD5A2. To be noted: 95% CI in parentheses. Here is the method: (§5) For the calculation of KM, testosterone was added in increments of 0 to 50 µM to non-vector- and SRD5A1-HEK293 cells and in increments of 0 to 10 µM to SRD5A2-HEK293 cells 24 h after transfection. The DHT levels were measured (Figure 4a). […] The IC50 values were calculated (Table 3).
(§6) Transient overexpression was induced using transfection of cDNA with lipofectamine (Thermo Fisher Scientific, Waltham, MA, USA). HEK-293 cells were seeded in 24-well plates at a density of 10^5 cells per well and incubated at 37 °C in an atmosphere of 5% CO2. After overnight culture, 500 ng of cDNA and 0.75 µL of the Lipofectamine 3000 reagent were diluted in the Opti-MEM medium and incubated for 15 min for DNA-lipid complex formation. The DNA-lipid complex was added to the wells and incubated for 6 h. After incubation, the sample-treated medium was changed to the complete culture medium and incubated for 18 h.
(§7) All cells were seeded on a 24-well plate. The seeding densities of the DU-145, LNCaP, and SW-13 cells were 0.5 × 10^5 cells per well. The ZFL and RTG-2 cells were seeded at densities of 1.0 × 10^5 cells and 2.0 × 10^5 cells, respectively. […]
(§8) The extracts were analyzed for DHT via ultra-performance LC-MS/MS (Agilent 1200/6460C QQQMSD coupled Jet Stream technology electrospray ion (ESI) source; Agilent Technologies, Santa Clara, CA, USA). […]

Data set [1] has as its target T2, 5AR (SRD5A1) in DU-145 cells (Homo sapiens, UniProt P18405).
T2 sequence (P18405 1-259): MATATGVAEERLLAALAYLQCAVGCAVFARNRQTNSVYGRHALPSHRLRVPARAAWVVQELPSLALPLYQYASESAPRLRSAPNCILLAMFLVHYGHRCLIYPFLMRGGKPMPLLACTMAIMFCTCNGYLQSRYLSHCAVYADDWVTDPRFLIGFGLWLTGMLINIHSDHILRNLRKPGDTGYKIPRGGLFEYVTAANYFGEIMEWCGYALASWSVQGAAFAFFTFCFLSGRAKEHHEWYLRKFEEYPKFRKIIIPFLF
To be noted: DHT formation from testosterone 0 to 10 µM, 95% CI in parentheses.

The next data set addresses T3, SRD5A1 (Homo sapiens, UniProt P18405).
T3 sequence (P18405 1-259): T2 sequence (P18405 1-259)
The experiment in a line: Cell-based 5AR activity/inhibition assay in HEK-293 cells transiently overexpressing SRD5A1. To be noted: IC50 Value, SRD5A1-overexpressing HEK-293 cells; testosterone at KM, 3 h; 95% CI in parentheses. Here is the method: as §5, §6, §7, §8

Data set [2] has as its target rat and human 5α-reductase. On the set-up: method as in PMID 14753249, PMID 8645628, PMID 7734404, PMID 9605412, PMID 16818707. The note with it: ref [14],[43],[44],[45],[46],[47]; cited from earlier work.
Substrate in data set [3]: C[C@]12CC[C@H]3[C@@H](CCC4=CC(=O)CC[C@@]43C)[C@@H]1CC[C@@H]2O
The experiment in a line: cells, lysate or membranes. To be noted: 95% CI in parentheses.

[4] abbreviates: testosterone at KM, 3 h, 95% CI in parentheses, read-out: IC50 Value.
The mark [5] stands for this setting: testosterone 0 to 50 µM, 95% CI in parentheses.
The mark [6] stands for this setting: read-out: IC50 Value, testosterone at KM, 3 h, 95% CI in parentheses.
The mark [7] stands for this setting: other: LNCaP cells, testosterone 0 to 10 µM.
Setting [8] is: other: DU-145 cells, testosterone 0 to 10 µM.
Where [9] appears, read: other: SRD5A1-HEK293 cells, testosterone 0 to 50 µM, 37.0 °C.
The mark [10] stands for this setting: other: SRD5A2-HEK293 cells, testosterone 0 to 10 µM, 37.0 °C.

“And” between values parts separate entries of the source, which are not always exact repeats. Equal entries are not always repeated. Where two headings read alike, the source gives them in different places.

For `CC(C)(C)NC(=O)[C@H]1CC[C@H]2[C@@H]3CC[C@H]4NC(=O)C=C[C@]4(C)[C@H]3CC[C@]12C` [Finasteride, finasteride], the IC50 is 142 nM in the data set on 5AR in ZFL cells (setting [4]); 2460 nM in the data set with 5AR in RTG-2 cells (testosterone at KM, 3 h, 95% CI in parentheses, listed as finasteride, read-out: IC50 Value); 2670 nM in the data set on 5AR in RTG-2 cells (setting [4]).
`C[C@]12CC[C@H]3[C@@H](CCC4=CC(=O)CC[C@@]43C)[C@@H]1CC[C@@H]2O` [testosterone]: the Vmax was 22.52 nmol/L/h at SRD5A2 (SRD5A2-HEK293 cells, testosterone 0 to 10 µM); 116.6 nmol L^−1 h^−1 and 116.60 (106.9–126.9) nmol L^−1 h^−1 in the data set with 5AR in ZFL cells (setting [5]); 13.09 (11.88–14.37) nmol L^−1 h^−1 in the data set on 5AR in RTG-2 cells (setting [5]); 75.55 nmol/L/h in data set [1]. The values for the Km with 5AR in ZFL cells (setting [5]) and in the data set with 5AR in RTG-2 cells (setting [5]) were 0.46 nM and 1.12 nM, respectively.
For `C[C@]12C=CC(=O)N[C@@H]1CC[C@@H]1[C@@H]2CC[C@]2(C)[C@@H](C(=O)Nc3cc(C(F)(F)F)ccc3C(F)(F)F)CC[C@@H]12` [Dutasteride, dutasteride], the IC50 on SRD5A1 was 1.27 nM; at SRD5A2 (IC50 Value, SRD5A2-overexpressing HEK-293 cells, testosterone at KM, 3 h), 1.19 nM; in the data set on 5AR in ZFL cells (setting [6]), 7.33 nM; with 5AR in RTG-2 cells (setting [6]), 13.2 nM; in data set [2] it was 0.2 to 7 nM.

B1: 5AR (SRD5A1) in LNCaP cells (Homo sapiens) (protein)
chain: T2 sequence (P18405 1-259)
Consider B1, for which, in data set [3] (setting [7]), the Km is listed as 15.10 (12.35–19.25) nM and the Vmax turned out to be 0.000644 µM/min.

B2: 5AR (SRD5A1) in DU-145 cells (Homo sapiens) (protein)
chain: T2 sequence (P18405 1-259)
With B2, in data set [3] (setting [8]), the Km is reported as 9.15 (7.01–12.81) nM and the Vmax stood at 0.00126 µM/min.

B3: SRD5A1 (Homo sapiens) (protein)
chain: T2 sequence (P18405 1-259)
As for B3, in data set [3] (setting [9]), the Km is 2.29 (1.70–3.09) nM and the Vmax was found to be 0.000143 µM/min.

B4: SRD5A2 (Homo sapiens) (protein)
chain: T1 sequence (P31213 1-254)
As to B4, in data set [3] (setting [10]), the Km is given as 0.36 (0.18–0.65) nM and the Vmax came to 0.000375 µM/min.
